{"source": "patent US12728121B2", "about": "“Compositions and methods for treating idiopathic pulmonary fibrosis” (Seyltx, Inc., priority 2019, dated 2026)", "type_in_all_cases": "in vivo, Mouse/C57BL/6", "key": {"[1]": {"tested_on": "BLM-induced fibrosis", "experiment": "Bleomycin (BLM)-induced lung fibrosis in mice: Gomori's Trichrome score of lung sections", "description": "(§1) The mouse species or strain was Mouse/C57BL/6, the mice being 8-10 week old males. Nine groups of 10 mice each were obtained from Charles River Laboratories. Each group was randomized based on body weight. Bleomycin (BLM) was obtained from Euroasias.\n(§2) The mice were anesthetized with isoflurane/O2 mixture. Bleomycin (BLM) was then administered to the mice intratracheally (PennCentury)—single bolus, at 2.5 U/kg body weight in 50 μl sterile saline.\n(§3) Seven days after the bleomycin is administered, and fibroblasts have generally proliferated, six of the nine groups of IT bleomycin challenged mice were be dosed orally (p.o.) once a day with Bromantane, Ifenoprodil, Radiprodil, Bemithyl, Dexamethasone, or Repirinast at specified amounts per kg of body weight (mg/kg) daily for 14 consecutive days. The amounts are set out in Table 1 below. The vehicle used was 0.5% carboxymethyl cellulose (CMC). Prifenidone was also prepared in 0.5% CMC and administrated orally once a day to one of the nine IT bleomycin challenged mice groups beginning for 14 consecutive days. Vehicle and no-BLM control groups received 0.5% CMC orally for 14 consecutive days.\nOn day 21 of the study, 4 hours after the last dose, the mice were sacrificed and plasma was collected and frozen for cytokine analysis (testing for IL-6, IL-12, TGFβ, IL-13 proteins, or fibrosis markers). Bronchoalveolar lavage fluid (BALF) was collected and frozen for optional cytokine analyses and cell counts pending the initial data. The lungs were then excised, weighed and fixed in formalin. Gomori's Trichrome stain, a histological stain, was used to determine collagen content.\nTrichrome Score: A trichrome score measures the level of scarring to the lungs caused by the disease. The greater the trichrome score, the greater the scarring.\nFormalin fixed lung samples were submitted to affiliated histopathology laboratory for histopathological analysis subjected Gomori's Trichrome stain, a histological stain, which was used to determine collagen content.\nEach lung was divided into ten sections. All ten sections were stained and evaluated. A board certified veterinarian pathologist assessed the presence of lung fibrosis and severity score—The expression of collagen (associated with fibrosis) is determined from the ratio of the stained area versus the total area of the lung section."}, "[2]": {"tested_on": "BLM-induced fibrosis", "experiment": "Bleomycin (BLM)-induced lung fibrosis in mice: mortality rate over 21 days", "details": "doses as Table 1", "description": "as §1, §2, §3\nMortality Rate: the mortality rate in each group was also observed over 21 days."}, "[3]": {"experiment": "Bleomycin (BLM)-induced lung fibrosis in mice: body weight over 21 days", "details": "for Percent Change in Body Weight / Body Weight: doses as Table 1; for Body Weight: group mean", "description": "as §1, §2, §3\nBody Weight: The body weights were measured over 21 days using a laboratory balance."}, "[4]": {"details": "doses as Table 1, order: Dexamethasone and Repirinast, followed by Ifenprodil and Radiprodil"}}}
{"compound": "Cc1ccc2c([nH]c(=O)c3c(=O)cc(C(=O)OCCC(C)C)oc32)c1C", "note": "[Repirinast, Isopentyl 7,8-dimethyl-4,5-dioxo-5,6-dihydro-4H-pyrano[3,2-c]quinoline-2-carboxylate]", "values": [{"measurement": "Trichrome score (average)", "setting": "[1]; day 21, BLM 2.5 U/kg intratracheal, p.o. once daily 14 days from day 7, mg/kg: Pirfenidone 300, Bromantane 20, Ifenoprodil 30, Radiprodil 30, Bemithyl 200, Dexamethasone 0.25, Repirinast 90, Normal 1.00, Vehicle 4.59", "value": 3.16}, {"measurement": "Trichrome score response versus BLM-vehicle group (in words)", "setting": "[1]; [4]", "value": "response was better"}, {"measurement": "percent reduction in lung fibrosis in comparison to the BLM-vehicle group (in words)", "setting": "[1]; [4]", "value": "higher"}, {"measurement": "% reduction in fibrosis", "setting": "[1]; from Trichrome scores relative to vehicle and normal groups, day 21, doses as Table 1, p.o. once daily 14 days", "value": 39.8, "unit": "%"}, {"measurement": "improvement in lung fibrosis, loss of body weight, Trichrome score and mortality as compared to BLM-vehicle (conclusion, in words)", "setting": "[1]; oral administration, Dexamethasone 0.25, Repirinast 90, Ifenprodil 30, Radiprodil 30 mg/kg", "value": "showed improvement"}, {"measurement": "Fatality Number", "setting": "[2]; deaths/mice per group over 21 days, Vehicle 2/10", "value": "1/10"}, {"measurement": "percent survival (in words)", "setting": "[2]; order: Dexamethasone and Repirinast, followed by Ifenprodil and Radiprodil", "value": "higher"}, {"measurement": "Percent Fatality", "setting": "[2]; over 21 days, Vehicle 20%", "value": 10, "unit": "%"}, {"measurement": "Percent Change in Body Weight", "setting": "[3]; 7-Nov", "value": 0.0, "unit": "%"}, {"measurement": "Body Weight", "setting": "[3]; 7-Nov", "value": 23.5, "unit": "g"}, {"measurement": "Percent Change in Body Weight", "setting": "[3]; 8-Nov", "value": 0.2, "unit": "%"}, {"measurement": "Body Weight", "setting": "[3]; 8-Nov", "value": 23.7, "unit": "g"}, {"measurement": "Percent Change in Body Weight", "setting": "[3]; 9-Nov", "value": "−0.3", "unit": "%"}, {"measurement": "Body Weight", "setting": "[3]; 9-Nov", "value": 23.2, "unit": "g"}, {"measurement": "Percent Change in Body Weight", "setting": "[3]; 12-Nov", "value": "−2.0", "unit": "%"}, {"measurement": "Body Weight", "setting": "[3]; 12-Nov", "value": 21.5, "unit": "g"}, {"measurement": "Percent Change in Body Weight", "setting": "[3]; 14-Nov", "value": "−1.8", "unit": "%"}, {"measurement": "Body Weight", "setting": "[3]; 14-Nov", "value": 21.8, "unit": "g"}, {"measurement": "Percent Change in Body Weight", "setting": "[3]; 16-Nov", "value": "−2.5", "unit": "%"}, {"measurement": "Body Weight", "setting": "[3]; 16-Nov", "value": 21.1, "unit": "g"}, {"measurement": "Percent Change in Body Weight", "setting": "[3]; 20-Nov", "value": "−2.2", "unit": "%"}, {"measurement": "Body Weight", "setting": "[3]; 20-Nov", "value": 21.4, "unit": "g"}, {"measurement": "Percent Change in Body Weight", "setting": "[3]; 22-Nov", "value": "−1.3", "unit": "%"}, {"measurement": "Body Weight", "setting": "[3]; 22-Nov", "value": 22.3, "unit": "g"}, {"measurement": "Percent Change in Body Weight", "setting": "[3]; 26-Nov", "value": "−1.6", "unit": "%"}, {"measurement": "Body Weight", "setting": "[3]; 26-Nov", "value": 21.9, "unit": "g"}, {"measurement": "Percent Change in Body Weight", "setting": "[3]; 28-Nov", "value": "−1.3", "unit": "%"}, {"measurement": "Body Weight", "setting": "[3]; 28-Nov", "value": 22.3, "unit": "g"}, {"measurement": "changes in body weight as compared to the BLM-vehicle group (in words)", "setting": "[3]; doses as Table 1, p.o. once daily", "value": "No significant differences"}]}
